Non-standard residues stand in square brackets, D forms with d. Primed or numbered codes have the meaning given here. No end group written: not given here. Kβ″ = beta-amino acid residue (K); β3hA = C[C@H](N)CC(=O)O; Yβ = β-tyrosine
How the values were obtained:
[1] = target: T1, HLA DR2 (Homo sapiens, UniProt P01903+P01911); experiment: Inhibition of binding of biotinylated MBP (85-99) to HLA DR2; details: 5 μM competitor, 0.5 μM biotinylated MBP (85-99); FIG. 3
T1 construct: endogenous in cells; host or cells: MGAR lymphoblastoid B cell line (IHWG, Seattle)
Procedure: HLA DR2 molecules were affinity purified from MGAR (a lymphoblastoid B cell line expressing HLA DR2 obtained from IHWG, Seattle, Wash. —USA) cell line. Cells were cultured in RPMI 1640 supplemented with 10% FBS, 2 mM glutamine, 50 U/ml penicillin and 50 μg/ml streptomycin. The anti-DR antibody L243 was purchased from Santacruz Biotech.
HLA DR2 was purified to a purity of 90-95% by immunoaffinity purification. Briefly, MGAR cells were detergent solubilized to prepare the membrane fraction which was passed sequentially through sepharose CL-6B, normal mouse serum-affinity-gel, Protein A sepharose CL-4B and L243-protein A sepharose-CL-4B at a flow rate of around 10-11 ml/h. The final eluate was dialyzed against 0.1% deoxycholate, 10 mM Tris-HCl (pH 8.0) and concentrated using centricon concentrators from Millipore. Protein concentration was determined using bicinchoninic acid (BCA) assay (Sigma). The obtained protein fraction was also run on SDS-PAGE gel to confirm identity and purity.
Copolymers (GA, J91, J92, S101 to S109) and peptide analogs (S1-S82) at a final concentration of 5 μM were coincubated with biotinylated MBP (85-99; purchased from Bioconcept Labs Pvt. Ltd. India) at a final concentration of 0.5 μM and HLA DR2 (0.5 μg/sample) molecules for 40 h at 37° C. and transferred to a 96-well microtiter assay plates coated with 1 μg/well purified L243 mAb. Coating of microtiter plates was performed with 100 μl of L243 mAb in PBS for 18 h at 4° C. […] 3,3′,5,5′-tetramethylbenzidine (TMB, substrate for […]) was added to each well and absorbance at 410 nm was recorded on an ELISA reader (TECAN infinite M200).
Ability of analogs viz. […] Most of the analogs designed herein viz.
β^3-homo amino acid containing copolymers viz. […] Copolymers containing β^3-homo amino acids viz.

[2] = test system: SJL/J mice exhibiting MBP (85-109) induced relapsing remitting form of EAE; experiment: Therapeutic activity in MBP (85-109) induced relapsing remitting EAE, treatment from day 11; assay type: in vivo; details: for Therapeutic activity in comparison to GA (Therapeutic activity (Analogs) − Therapeutic activity GA) / Therapeutic activity in comparison to J5 (Therapeutic activity (Analogs) − Therapeutic activity (J5)) / Therapeutic activity = % reduction in cumulative clinical disability score: SJL/J mice, RR EAE; for Therapeutic activity in comparison to GA (Therapeutic activity (Analogs) − Therapeutic activity GA) / Therapeutic activity in comparison to J5 (Therapeutic activity (Analogs) − Therapeutic activity (J5)): 0.1 mg daily for two weeks; for Therapeutic activity = % reduction in cumulative clinical disability score: synthetic peptides, 0.1 mg daily for two weeks from day 11 post-immunization
Procedure: SJL/J and C57BL6/J mice procured from Jackson's laboratory (Bar Harbor, Me.) were maintained under standard housing conditions in the central animal facility at NII as per institutional ethical committee guidelines. 8-10 week old female SJL/J mice were used throughout the study.
(§1) To induce RR EAE or chronic progressive EAE, SJL/J or C57BL6/J mice were immunized subcutaneously with 0.2 mg of MBP (85-109) or 0.1 mg MOG (35-55) emulsified in CFA and 200 ng of pertussis toxin was injected intraperitoneally on day 0 and day 2 so as to permeablize the blood brain barrier. All the animals in various experimental groups were scored daily for clinical disability on a scale of 0-6 where 0=no neurological symptoms, 1=limp tail, 2=weakness of hind limbs or ataxia, 3=incomplete paralysis of hind limbs, 4=complete paralysis of hind limbs, 5=complete paralysis of all four limbs, 6=dead. Diseased animals were provided easy access to food and water.
GA, J91, J92, S101, S102, S103 for two weeks and scored for clinical disability.

[3] = test system: relapsing remitting EAE in SJL/J mice; experiment: Prophylactic (pre-treatment) efficacy in relapsing remitting EAE; assay type: in vivo; details: pre-treatment 0.5 mg in IFA; FIG. 2i
Procedure: as §1

[4] = test system: spleenocytes; experiment: Th1/Th2 cytokine levels in culture supernates of spleenocytes from treatment groups; assay type: cell-based, mice; details: spleenocytes at the end of four weeks; FIG. 4
Procedure: Levels of various cytokines in culture supernates were determined by sandwich ELISA using multiplex cytokine ELISA kit (Millipore). Briefly, 100 μl of cell culture supernates from various groups were incubated with antibody (against various pro and anti-inflammatory cytokines) coated fluorescent polystyrene beads in 96 well microtiter plates, stained with PE-conjugated secondary antibody, provided in the kit and samples were acquired on […] (Bio-rad).
Effect of a group of analogs comprising analogs viz.
Effect of β^3-homo amino acid containing copolymers viz S101, S102 and S103 on Th1/Th2 cytokine balance was studied in comparison to other copolymers viz. GA, J91, J92, for which culture supernates of spleenocytes grown in the presence of various copolymers, were assayed using ELISA to determine the levels of various cytokines. […] Most noteworthy change was in the levels of IL-2 in the S101, S102 and S103 treated groups, where the levels were brought down by 60-70%.

T1 sequence (P01903 26-254): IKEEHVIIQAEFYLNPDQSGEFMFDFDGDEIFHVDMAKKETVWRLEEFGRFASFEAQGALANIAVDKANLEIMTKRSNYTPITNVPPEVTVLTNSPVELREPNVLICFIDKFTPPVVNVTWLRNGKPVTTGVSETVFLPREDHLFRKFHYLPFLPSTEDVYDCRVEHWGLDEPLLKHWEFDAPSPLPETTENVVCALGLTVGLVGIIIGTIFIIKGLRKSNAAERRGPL
T1 sequence (P01911 30-266): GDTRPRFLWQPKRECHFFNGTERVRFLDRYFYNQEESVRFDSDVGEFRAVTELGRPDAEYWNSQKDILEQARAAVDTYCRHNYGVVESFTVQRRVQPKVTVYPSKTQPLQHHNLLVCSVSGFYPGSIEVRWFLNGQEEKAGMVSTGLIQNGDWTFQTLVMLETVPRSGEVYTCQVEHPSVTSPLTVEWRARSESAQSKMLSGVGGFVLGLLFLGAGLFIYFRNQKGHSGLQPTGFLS

Row | inhibition of binding of biotinylated MBP (85-99) to HLA DR2 [1] [%] | Substance | Therapeutic activity in comparison to GA (Therapeutic activity (Analogs) − Therapeutic activity GA) [2] [%] | Therapeutic activity in comparison to J5 (Therapeutic activity (Analogs) − Therapeutic activity (J5)) [2] [%] | efficacy relative to GA ([2]; both treatment and pre-treatment scenarios) | Therapeutic activity = % reduction in cumulative clinical disability score [2] [%] | delay of clinical onset of disease [3] [days] | effect on clinical onset of disease [3] | change in IL-4 levels [4]
1 | ~15 | FPFNVPTNIVKVERH (Peptide analog) [scrambled MBP (85-99)] |  |  |  |  |  |  | 
2 |  | Eβ^3Kβ^3Pβ^3Kβ^3Vβ^3Eβ^3Aβ^3Yβ^3Kβ^3Aβ^3Aβ^3Aβ^3Aβ^3Pβ^3Aβ^3 [Analog S15] | 30.91 | 26.95 | approximately two times better | 62.25 | ~3 |  | 
3 |  | EKPKVEAYKAAAAPA [Analog J5, reference compound] | 3.957 | 0 |  | 35.29 |  | no effect on clinical onset of disease | only a marginal increase
4 |  | EKPKVEAYKβ^3Aβ^3Aβ^3Aβ^3Aβ^3Pβ^3Aβ^3 [Analog S6] | 19.47 | 15.51 |  | 50.8 |  |  | 
5 |  | KVEAYK (Peptide analog) [Analog J5b, reference compound] | −10.9091 | −14.8663 |  | 20.43 |  |  | 
6 |  | KVEAβ^3Yβ^3Kβ^3Aβ^3Aβ^3Aβ^3Aβ^3 [Analog S23] | 22.14 | 18.18 |  | 53.48 |  |  | 
7 |  | VβEβAβYβKβ [Analog S77] | −18.8235 | −22.7808 |  | 12.51 |  |  | 
8 |  | KVβEβAβYβKβ [Analog S70] | −16.8984 | −20.8556 |  | 14.4385 |  |  | 
9 |  | KVEAYKAAAβ^3Aβ^3 (KVEAYKAA[β3hA][β3hA]) [Analog S18] | −3.957 | −7.914 |  | 27.38 |  |  | 
10 |  | KVEAYKAAAβAβ [Analog S56] | −0.4278 | −4.385 |  | 30.91 |  |  | 
11 |  | EKβ^3Pβ^3Kβ^3Vβ^3Eβ^3Aβ^3Yβ^3Kβ^3Aβ^3Aβ^3Aβ^3Aβ^3Pβ^3Aβ^3 [Analog S14] | 27.91 | 23.96 |  | 59.25 |  |  | 
12 |  | KVEAYKAβ^3Aβ^3Aβ^3Aβ^3 (KVEAYK[β3hA][β3hA][β3hA][β3hA]) [Analog S20] | 16.9 | 12.94 |  | 48.24 |  |  | 
13 |  | KVβ^3Eβ^3Aβ^3Yβ^3Kβ^3Aβ^3Aβ^3Aβ^3Aβ^3 [Analog S25] | 22.25 | 18.29 |  | 53.58 |  |  | 
14 |  | KVEAYKβAβAβAβAβ [Analog S59] | 12.94 | 8.984 |  | 44.28 |  |  | 
15 |  | EKPKβ^3Vβ^3Eβ^3Aβ^3Yβ^3Kβ^3Aβ^3Aβ^3Aβ^3Aβ^3Pβ^3Aβ^3 [Analog S12] | 25.88 | 21.93 |  | 57.22 |  |  | 
16 |  | KVEAYKβ^3Aβ^3Aβ^3Aβ^3Aβ^3 [Analog S21] | 17.97 | 14.01 |  | 49.3 |  |  | 
17 |  | EKPKVEAYKAAAAPβ^3Aβ^3 [Analog S2] | 2.139 | −1.818 |  | 33.48 |  |  | 
18 |  | KVEAYβKβ (KVEA[Yβ][Kβ″]) [Analog S67] | −12.9412 | −16.8984 |  | 18.4 |  |  | 
19 |  | Eβ^3Kβ^3Pβ^3Kβ^3Vβ^3EAYβ^3Kβ^3Aβ^3Aβ^3Aβ^3Aβ^3Pβ^3Aβ^3 [Analog S16] | 28.88 | 24.92 |  | 60.2139 |  |  | 
20 |  | VEAβ^3Yβ^3Kβ^3 [Analog S37] | −0.9626 | −4.92 |  | 30.37 |  |  | 
21 |  | EKPKVEβ^3Aβ^3Yβ^3Kβ^3Aβ^3Aβ^3Aβ^3Aβ^3Pβ^3Aβ^3 [Analog S10] | 19.89 | 15.94 |  | 51.23 |  |  | 

From patent publication US20140348861A1, “SYNTHETIC PEPTIDES AND RANDOM COPOLYMERS FOR THE TREATMENT OF AUTOIMMUNE DISORDERS” (NATIONAL INSTITUTE OF IMMUNOLOGY, priority 2011, published 2014)
